Data taken from the supplement of paper PMC11451515.

Experiments:
Settings in all cases: 48 h
NOMO1 [1] = assay: AUC of viability dose-response curve (% viability x log10 dose units); higher = less sensitive
Outline: (§1)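 In 1536-well plates, leukemia cells adapted to each medium (500 or 1000 cells/well) were exposed for 48 h at 37°C to library compounds in DMSO across 11 threefold doses, 47 μM down to 0.79 nM. Viability was read by CellTiter-Glo One luminescence and normalised per plate to DMSO and cell-free wells. A four-parameter log-logistic fit over log10 doses was integrated by trapezoidal rule. This yielded the area under the curve, with over-full-viability curves scaled and quality-control failures dropped.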

P12-Ichikawa [2] = assay: as above
Outline: as §1

SEM cells [3] = assay: as above
Outline: as §1

NOMO1 [4] = assay: cell viability relative to DMSO control; higher = less cytotoxic
Outline: (§2)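 Before seeding, each leukemia line was adapted for at least four passages in each medium. NOMO1 or SEM cells (500 cells/well) and P12-Ichikawa cells (1000 cells/well) went into 1536-well plates at 5 μl, then received library compounds in DMSO by pin dosing across 11 threefold concentrations, 47 μM to 0.79 nM. Readout was CellTiter-Glo One luminescence after 48 h at 37°C, and viability is given as a per-plate percentage of DMSO wells, with cell-free wells as background.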

P12-Ichikawa [5] = assay: as above
Outline: as §2

SEM cells [6] = assay: as above
Outline: as §2

O=C(Nc1nc2ccccc2n1CCN1CCOCC1)c1cccc([N+](=O)[O-])c1
AUC of viability dose-response curve
Settings | NOMO1 [1] | P12-Ichikawa [2] | SEM cells [3]
HPLM + 10% dialyzed FBS | 447 | 462 | 474
RPMI 5 mM glucose + 10% FBS | 465 | 445 | 465
RPMI 5 mM glucose + 10% dialyzed FBS | 470 | 449 | 444

CC(=O)NC(CS)C(=O)O (stereo unspecified)
cell viability [%]
Settings | NOMO1 [4] | P12-Ichikawa [5] | SEM cells [6]
HPLM + 10% dialyzed FBS, 0.000781 µM | 81.1 | 81.9 | 71.5
HPLM + 10% dialyzed FBS, 0.00234 µM | 93.2 | 82.9 | 71.7
HPLM + 10% dialyzed FBS, 0.00702 µM | 104 | 88.7 | 75.7
HPLM + 10% dialyzed FBS, 0.0211 µM | 82.7 | 88.4 | 63.5
HPLM + 10% dialyzed FBS, 0.0632 µM | 96.9 | 91.3 | 82.3
HPLM + 10% dialyzed FBS, 0.19 µM | 81.6 | 86.4 | 62.5
HPLM + 10% dialyzed FBS, 0.569 µM | 78.8 | 89.3 | 66.7
HPLM + 10% dialyzed FBS, 1.71 µM | 97 | 87.2 | 84.1
HPLM + 10% dialyzed FBS, 5.12 µM | 78.2 | 87.3 | 90
HPLM + 10% dialyzed FBS, 15.4 µM | 26.7 | 18.4 | 36.1
HPLM + 10% dialyzed FBS, 46.1 µM | 27.5 | 27.5 | 62.3
RPMI 5 mM glucose + 10% FBS, 0.000781 µM | 72.7 | 75.5 | 93.5
RPMI 5 mM glucose + 10% FBS, 0.00234 µM | 81.1 | 74.2 | 93.7
RPMI 5 mM glucose + 10% FBS, 0.00702 µM | 75.3 | 81.5 | 87.8
RPMI 5 mM glucose + 10% FBS, 0.0211 µM | 74.4 | 78.2 | 99.1
RPMI 5 mM glucose + 10% FBS, 0.0632 µM | 75.8 | 81.4 | 99.8
RPMI 5 mM glucose + 10% FBS, 0.19 µM | 75.2 | 69.5 | 90.8
RPMI 5 mM glucose + 10% FBS, 0.569 µM | 82.7 | 83.3 | 95.4
RPMI 5 mM glucose + 10% FBS, 1.71 µM | 79.5 | 80.4 | 116
RPMI 5 mM glucose + 10% FBS, 5.12 µM | 84.5 | 88.8 | 114
RPMI 5 mM glucose + 10% FBS, 15.4 µM | 30.5 | 28.6 | 27.7
RPMI 5 mM glucose + 10% FBS, 46.1 µM | 70.4 | 62.5 | 29.2
RPMI 5 mM glucose + 10% dialyzed FBS, 0.000781 µM | 81.1 | 80.4 | 76.7
RPMI 5 mM glucose + 10% dialyzed FBS, 0.00234 µM | 77.8 | 80.4 | 57.8
RPMI 5 mM glucose + 10% dialyzed FBS, 0.00702 µM | 86.7 | 76.4 | 86.2
RPMI 5 mM glucose + 10% dialyzed FBS, 0.0211 µM | 88.9 | 82.7 | 65.5
RPMI 5 mM glucose + 10% dialyzed FBS, 0.0632 µM | 88.1 | 89.7 | 88.4
RPMI 5 mM glucose + 10% dialyzed FBS, 0.19 µM | 75.8 | 79 | 64
RPMI 5 mM glucose + 10% dialyzed FBS, 0.569 µM | 85.6 | 84.4 | 83.6
RPMI 5 mM glucose + 10% dialyzed FBS, 1.71 µM | 80.1 | 88.8 | 78.7
RPMI 5 mM glucose + 10% dialyzed FBS, 5.12 µM | 90.7 | 77.2 | 108
RPMI 5 mM glucose + 10% dialyzed FBS, 15.4 µM | 27.8 | 27.8 | 30.9
RPMI 5 mM glucose + 10% dialyzed FBS, 46.1 µM | 75.9 | 45.6 | 54.9

AUC of viability dose-response curve
Settings | HPLM + 10% dialyzed FBS | RPMI 5 mM glucose + 10% FBS | RPMI 5 mM glucose + 10% dialyzed FBS
NOMO1 [1] | 376 | 352 | 377
P12-Ichikawa [2] | 369 | 354 | 359

Cc1cccc(C#Cc2ccccc2)n1
cell viability [%]
Settings | P12-Ichikawa [5] | SEM cells [6]
HPLM + 10% dialyzed FBS, 0.000781 µM | 120 | 119
HPLM + 10% dialyzed FBS, 0.00234 µM | 128 | 140
HPLM + 10% dialyzed FBS, 0.00702 µM | 124 | 123
HPLM + 10% dialyzed FBS, 0.0211 µM | 124 | 134
HPLM + 10% dialyzed FBS, 0.0632 µM | 125 | 132
HPLM + 10% dialyzed FBS, 0.19 µM | 122 | 117
HPLM + 10% dialyzed FBS, 0.569 µM | 112 | 137
HPLM + 10% dialyzed FBS, 1.71 µM | 121 | 134
HPLM + 10% dialyzed FBS, 5.12 µM | 113 | 116
HPLM + 10% dialyzed FBS, 15.4 µM | 117 | 106
HPLM + 10% dialyzed FBS, 46.1 µM | 105 | 89.5
RPMI 5 mM glucose + 10% FBS, 0.000781 µM | – | 128
RPMI 5 mM glucose + 10% FBS, 0.00234 µM | – | 118
RPMI 5 mM glucose + 10% FBS, 0.00702 µM | – | 109
RPMI 5 mM glucose + 10% FBS, 0.0211 µM | – | 123
RPMI 5 mM glucose + 10% FBS, 0.0632 µM | – | 128
RPMI 5 mM glucose + 10% FBS, 0.19 µM | – | 118
RPMI 5 mM glucose + 10% FBS, 0.569 µM | – | 128
RPMI 5 mM glucose + 10% FBS, 1.71 µM | – | 121
RPMI 5 mM glucose + 10% FBS, 5.12 µM | – | 102
RPMI 5 mM glucose + 10% FBS, 15.4 µM | – | 105
RPMI 5 mM glucose + 10% FBS, 46.1 µM | – | 84.4

AUC of viability dose-response curve
Settings | NOMO1 [1] | P12-Ichikawa [2] | SEM cells [3]
HPLM + 10% dialyzed FBS | 461 | 456 | 456
RPMI 5 mM glucose + 10% FBS | 464 | 445 | 455
RPMI 5 mM glucose + 10% dialyzed FBS | 463 | 450 | 449

Cc1ccc(O)c(C(CCN(C(C)C)C(C)C)c2ccccc2)c1.Cl (stereo unspecified)
P12-Ichikawa [5], HPLM + 10% dialyzed FBS
Settings | cell viability [%]
0.000781 µM | 121
0.00234 µM | 122
0.00702 µM | 131
0.0211 µM | 137
0.0632 µM | 140
0.19 µM | 128
0.569 µM | 129
1.71 µM | 134
5.12 µM | 134
15.4 µM | 136
46.1 µM | 127

AUC of viability dose-response curve
Settings | NOMO1 [1] | P12-Ichikawa [2] | SEM cells [3]
HPLM + 10% dialyzed FBS | 410 | 465 | 461
RPMI 5 mM glucose + 10% FBS | 430 | 470 | 477
RPMI 5 mM glucose + 10% dialyzed FBS | 435 | 475 | 463
